From patent US20050208496A1, “Methods of testing for bronchial asthma or chronic obstructive pulmonary disease” (Genox Research, Inc., priority 2002, published 2005)

Test system: respiratory epithelial cells

“IL-13: human IL-13 (Peprotech, Inc.) added to the medium at 50 ng/mL to stimulate respiratory epithelial cells” was tested, and the “AI948584 48086_at expression change” value (lot 1, Day 7, AI) was −3.9, the “AI971023 48539_at expression change” value (lot 1, Day 7, AI) was −2.1 and the “AI984780 (52384_s_at) expression change” value (lot 1, Day 7, AI) was −2.5. The “AL040936 (45684_at) expression change” value (lot 1, Day 7, AI) was −2.3, the “AQP5 32909_at expression change” value (lot 1, Day 7, AI) was −3.4 and the “ARHGEF4 36524_at expression change” value (lot 1, Day 7, AI) was −4.1. For the same substance, the “ARHV (82231_at) expression change” value (lot 1, Day 7, AI) was −2.7, the “AW022213 (79520_at) expression change” value (lot 1, Day 7, AI) was −2.6 and the “AW025596 52634_at expression change” value (lot 1, Day 7, AI) was −2.5. For the same substance, the “AW025596 52637_g_at expression change” value (lot 1, Day 7, AI) was −5.7, the “B4GALT5 56373_at expression change” value (lot 1, Day 7, AI) was −2.2 and the “BARX2 35425_at expression change” value (lot 1, Day 7, AI) was −2.4. The “BPGM (51261_at) expression change” value (lot 1, Day 7, AI) was −3.7, the “CBLB 514_at expression change” value (lot 1, Day 7, AI) was −4.2 and the “CBLB 35632_at expression change” value (lot 1, Day 7, AI) was −2. The “COL12A1 (44730_at) expression change” value (lot 1, Day 7, AI) was −3.5, the “CRABP-II 1057_at expression change” value (lot 1, Day 7, AI) was −5.4 and the “CRABP-II 41783_at expression change” value (lot 1, Day 7, AI) was −8.8. For the same substance, the “Clorf28 50075_at expression change” value (lot 1, Day 7, AI) was −3.5, the “DHCR24 (74557_s_at) expression change” value (lot 1, Day 7, AI) was −2 and the “DKFZp434K1210 44682_at expression change” value (lot 1, Day 7, AI) was −2.1. The “DSC3 (79615_at) expression change” value (lot 1, Day 7, AI) was −2.4, the “DSC3a, b 47119_at expression change” value (lot 1, Day 7, AI) was −2.8 and the “DSC3a, b 79615_at expression change” value (lot 1, Day 7, AI) was −2.4. For the same substance, the “EVPK 39569_at expression change” value (lot 1, Day 7, AI) was −2, the “FKBP5 (46271_at) expression change” value (lot 1, Day 7, AI) was −2.3 and the “FLJ10298 (62490_f_at) expression change” value (lot 1, Day 7, AI) was −4.5. For the same substance, the “FLJ10718 52072_at expression change” value (lot 1, Day 7, AI) was −3.8, the “FLJ12541 43546_at expression change” value (lot 1, Day 7, AI) was −10.1 and the “FLJ20048 (49196_at) expression change” value (lot 1, Day 7, AI) was −4.3. The “FLJ20500 43853_at expression change” value (lot 1, Day 7, AI) was −2.1, the “FLJ23309 45563_f_at expression change” value (lot 1, Day 7, AI) was −2 and the “FLJ23516 47534_at expression change” value (lot 1, Day 7, AI) was −4.1. For the same substance, the “GABRP 40339_at expression change” value (lot 1, Day 7, AI) was −2.1, the “GAS41 (64121_at) expression change” value (lot 1, Day 7, AI) was −2 and the “GJA1 32531_at expression change” value (lot 1, Day 7, AI) was −8.8. For the same substance, the “GK (61873_at) expression change” value (lot 1, Day 7, AI) was −2.7, the “GPD2 42720_at expression change” value (lot 1, Day 7, AI) was −2 and the “GSTA3 58023 at expression change” value (lot 1, Day 7, AI) was −2.7. The “HEY1 44783_s_at expression change” value (lot 1, Day 7, AI) was −4.5, the “HIN-1 (46200_at) expression change” value (lot 1, Day 7, AI) was −32.7 and the “HSPC195 44705_at expression change” value (lot 1, Day 7, AI) was −2.4. The “ID1 36619_r_at expression change” value (lot 1, Day 7, AI) was −8, the “IL20RA 42969_at expression change” value (lot 1, Day 7, AI) was −2.1 and the “IVL 36355_at expression change” value (lot 1, Day 7, AI) was −3.7. The “KCNMA1 (47575_g_at) expression change” value (lot 1, Day 7, AI) was −5.2, the “KCNMA1 (53796_at) expression change” value (lot 1, Day 7, AI) was −2.8 and the “KIAA0878 (48793_at) expression change” value (lot 1, Day 7, AI) was −2.8. The “KIAA1376 (62972_at) expression change” value (lot 1, Day 7, AI) was −2.2, the “KIAA1376 (64047_at) expression change” value (lot 1, Day 7, AI) was −4 and the “KIAA1547 58531_g_at expression change” value (lot 1, Day 7, AI) was −2.6. For the same substance, the “KLF7 (42769_at) expression change” value (lot 1, Day 7, AI) was −2.3, the “KRT6B (62998_at) expression change” value (lot 1, Day 7, AI) was −5.6 and the “KRT15 37582_at expression change” value (lot 1, Day 7, AI) was −2.6. For the same substance, the “LCE 45605_at expression change” value (lot 1, Day 7, AI) was −2.6, the “LMO4 1452_at expression change” value (lot 1, Day 7, AI) was −2 and the “LOC51297 (55440_at) expression change” value (lot 1, Day 7, AI) was −60.6. For the same substance, the “LOC51297 (55442_g_at) expression change” value (lot 1, Day 7, AI) was −181.3, the “LOC51316 (63342_at) expression change” value (lot 1, Day 7, AI) was −2.4 and the “LOC55893 (64071_at) expression change” value (lot 1, Day 7, AI) was −3.5. For the same substance, the “LOC129642 (42065_at) expression change” value (lot 1, Day 7, AI) was −5.4, the “LOC129642 (58288_at) expression change” value (lot 1, Day 7, AI) was −7.2 and the “LOC131177 (43849_s_at) expression change” value (lot 1, Day 7, AI) was −2.6. For the same substance, the “LOC131177 (45394_s_at) expression change” value (lot 1, Day 7, AI) was −2.3, the “MGC12536 46924_at expression change” value (lot 1, Day 7, AI) was −4.9 and the “MGC13102 (54791_at) expression change” value (lot 1, Day 7, AI) was −3.9. For the same substance, the “MGC14128 55924_at expression change” value (lot 1, Day 7, AI) was −5.1, the “MGC14128 (51669_r_at) expression change” value (lot 1, Day 7, AI) was −4.4 and the “MGC14597 (46030_at) expression change” value (lot 1, Day 7, AI) was −3.7. For the same substance, the “MGC16207 43412_s_at expression change” value (lot 1, Day 7, AI) was −2.6, the “MGC16207 (65876_at) expression change” value (lot 1, Day 7, AI) was −4 and the “N52554 47432_at expression change” value (lot 1, Day 7, AI) was −2.7. The “N71183 52473_at expression change” value (lot 1, Day 7, AI) was −2.3, the “PSCA (63958_at) expression change” value (lot 1, Day 7, AI) was −6.5 and the “RAC2 32737_at expression change” value (lot 1, Day 7, AI) was −4.9. For the same substance, the “RIN1 1778_g_at expression change” value (lot 1, Day 7, AI) was −2.1, the “SCNN1B 39682_at expression change” value (lot 1, Day 7, AI) was −7.6 and the “SEMA4B (46709_at) expression change” value (lot 1, Day 7, AI) was −3.6. For the same substance, the “SERPINA3 (75248_at) expression change” value (lot 1, Day 7, AI) was −24.4, the “SLC11A3 (45826_at) expression change” value (lot 1, Day 7, AI) was −3.3 and the “SLC34A2 (48048_at) expression change” value (lot 1, Day 7, AI) was −2. The “SPON2 52576_s_at expression change” value (lot 1, Day 7, AI) was −3, the “SPRR1B 37160_at expression change” value (lot 1, Day 7, AI) was −2.1 and the “STEAP 40297_at expression change” value (lot 1, Day 7, AI) was −3.1. The “T52027 (63150_at) expression change” value (lot 1, Day 7, AI) was −2.9, the “TCF8 33439_at expression change” value (lot 1, Day 7, AI) was −2.1 and the “TGFBI (68339_at) expression change” value (lot 1, Day 7, AI) was −4.2. The “TNFAIP2 (74633_at) expression change” value (lot 1, Day 7, AI) was −4.6, the “TNNT1 36113_s_at expression change” value (lot 1, Day 7, AI) was −5.5 and the “TPM1 36790_at expression change” value (lot 1, Day 7, AI) was −3.3. The “TPM1 36791_g_at expression change” value (lot 1, Day 7, AI) was −3.2, the “TPM1 36792_at expression change” value (lot 1, Day 7, AI) was −3.9 and the “UCP2 37591_at expression change” value (lot 1, Day 7, AI) was −12.7. For the same substance, the “UGB 39220_at expression change” value (lot 1, Day 7, AI) was −28.1, the “VEGFC 1934_s_at expression change” value (lot 1, Day 7, AI) was −2.4 and the “VIM 34091_s_at expression change” value (lot 1, Day 7, AI) was −9.4. For the same substance, the “W55956 46700_at expression change” value (lot 1, Day 7, AI) was −2.3, the “W72331 49486 at expression change” value (lot 1, Day 7, AI) was −3.4 and the “AA167714 (54897_at) expression fold change” value (lot 1, Day 7, AI method) was 3.9 fold. The “AA420479 (52539_at) expression fold change” value (lot 1, Day 7, AI method) was 4.1 fold, the “AA582926 (52307_at) expression fold change” value (lot 1, Day 7, AI method) was 3.8 fold and the “AA604375 (44127_at) expression fold change” value (lot 1, Day 7, AI method) was 2.5 fold. The “ACP5 (677_s_at) expression, fold change upon IL-13 stimulation” value (lot 1, Day 7, AI method) was 2.5 fold, the “ADAM8 (40712_at) expression, fold change upon IL-13 stimulation” value (lot 1, Day 7, AI method) was 5.1 fold and the “ADAM28 (35479_at) expression, fold change upon IL-13 stimulation” value (lot 1, Day 7, AI method) was 5 fold. The “AI565105 (54886_at) expression fold change” value (lot 1, Day 7, AI method) was 2.4 fold and the “AI659927 (54033_at) expression fold change” value (lot 1, Day 7, AI method) was 4.2 fold.
